The target of data set [1] is T1, Grb7-SH2 domain (Homo sapiens, UniProt Q14451).
T1 construct: made in house
The experiment in a line: Surface plasmon resonance (SPR) binding to Grb7-SH2 domain. As to conditions: for Kd: SPR BIAcore T100, GST-Grb7-SH2 captured via anti-GST antibody on CM5 chip, 50mM Na3PO4, 150–300 mM NaCl, 1 mM DTT pH 7.4, peptides without Penetratin, 0.015 to 250 μM, triplicate injections, steady-state, single-site binding model, errors are SD from model, SD, read-out: equilibrium dissociation binding constant (KD). The procedure:
GST and GST-Grb7-SH2 proteins were expressed and purified as previously described. Briefly, Grb7-SH2 was expressed as a GST fusion, and protein was purified via GST affinity chromatography, followed by size exclusion chromatography.
SPR experiments were carried out as previously described using the BIAcore T100 [23, 26]. BIAcore CM5 series S sensor chips (GE Life Sciences, Paramatta, NSW, Australia) were utilised. Amine coupling was used to immobilise the anti-GST antibody (Abcam, Cambridge, UK) to all flow cells. The immobilisation levels were between 11,000 RU and 7700 RU. As a control, the first flow cell captured only GST. GST-Grb7-SH2 was immobilised on flow cell 2 at close to 2800 RU. Peptides were resuspended in an analysis buffer consisting of 50mM Na3PO4, 150–300 mM NaCl, and 1 mM DTT (pH 7.4). The peptide was injected over flow cells at 30 μL/min for 60–80 s in triplicates. Double-referenced SPR data were analysed using Scrubber 2.0 (BioLogic Software, Campbell, ACT, Australia) and Prism 9.2.0 (GraphPad Prism v9.0, San Diego, CA, USA).
Here, it should be noted that the peptides were tested in the absence of the Penetratin tail shown in the schematic (Figure 1). In brief, peptides, at a range of concentrations, flowed over the chip surface to which the Grb7-SH2 domain was tethered, and the response was detected over time. […] In order to quantitate the binding affinities, the equilibrium dissociation binding constants (KD) for each peptide were calculated using binding curves derived from the sensogram responses at equilibrium (Figure 2E).
Figure 2 SPR binding analysis of newly developed Grb7-SH2-targeting peptides. […] Errors are SD arising from model.
In general terms: Surface plasmon resonance follows binding to a sensor surface in real time, without labels.

For data set [2], the target named is T1, Grb7-SH2 domain. As to conditions: earlier work; cited from earlier work. The source says: Three peptides were designed with Phe-Pro, Phe-Trp, or Phe-Arg incorporated at positions 9 and 10 of the amino acid sequence. […] Thus, it can be concluded that the lactam linkage confers a degree of rigidity sufficient to enha ...
Target sequence in this assay (Q14451 431-527 limits assumed): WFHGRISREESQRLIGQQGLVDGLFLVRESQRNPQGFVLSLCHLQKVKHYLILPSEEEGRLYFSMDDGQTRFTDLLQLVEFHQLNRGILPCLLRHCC
The conditions of data set [3]: not told; cited from earlier work.
A further data set deals with T2, GST-Grb7-SH2 (UniProt Q14451 415-532).
T2 construct: Captured on the chip by an anti-GST antibody; also called Grb7-SH2 domain
The experiment in a line: SPR; BIAcore T100, CM5 chip; GST-Grb7-SH2 held (close to 2800 RU) on amine-coupled anti-GST antibody, GST alone on the reference flow cell; peptides 0.015 to 250 uM injected at 30 uL/min for 60-80 s in triplicates; 50 mM Na3PO4, 150-300 mM NaCl, 1 mM DTT, pH 7.4; KD from steady-state responses, single-site binding model. The settings on record: both partners purified.

Like-named read-outs stand apart in the source and are kept apart here. Positions of bridges follow the written chain, without caps; N, C: chain ends. Residues, ends and D or L forms follow the SMILES beside them. No end group written: not given here.

T2 sequence (Q14451 415-532): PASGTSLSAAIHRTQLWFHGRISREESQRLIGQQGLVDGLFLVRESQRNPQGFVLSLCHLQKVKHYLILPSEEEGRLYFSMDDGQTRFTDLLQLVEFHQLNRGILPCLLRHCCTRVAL

For orientation: Kd means the free concentration of one partner at which half of the binding sites on the other are occupied at equilibrium, for simple one-to-one binding. With `NC(=O)C[C@@H]1NC(=O)[C@H](CC(=O)O)NC(=O)[C@H](Cc2ccc(O)cc2)NC(=O)CNC(=O)[C@H](CCC(=O)O)NC(=O)[C@H](Cc2ccccc2)NC(=O)[C@@H]2CCCCNC(=O)CC[C@H](NC1=O)C(=O)N[C@@H](Cc1ccccc1)C(=O)N1CCC[C@H]1C(=O)N[C@H](C(N)=O)CSCC(=O)N2` [G7-B8] ({CH2CO}-KFEGYDNEFPC-NH2; lactam 1-8; thioether N-11; C-terminus assumed), the Kd on Grb7-SH2 domain [1] was determined as 860 ± 80 nM. In addition, at Grb7-SH2 domain [1] (ratio of SPR KD values), the “fold increase in affinity over G7-18NATE” value is “approximately 8 fold”.

Consider `NC(=O)C[C@@H]1NC(=O)[C@H](CC(=O)O)NC(=O)[C@H](Cc2ccc(O)cc2)NC(=O)CNC(=O)[C@H](CCC(=O)O)NC(=O)[C@H](Cc2ccccc2)NC(=O)[C@@H]2CCCCNC(=O)CC[C@H](NC1=O)C(=O)N[C@@H](Cc1ccccc1)C(=O)N[C@@H](Cc1c[nH]c3ccccc13)C(=O)N[C@H](C(N)=O)CSCC(=O)N2` [G7-B9] ({CH2CO}-KFEGYDNEFWC-NH2; lactam 1-8; thioether N-11; C-terminus assumed), for which the Kd at Grb7-SH2 domain [1] worked out at 2680 ± 390 nM.

As to `N=C(N)NCCC[C@@H]1NC(=O)[C@H](Cc2ccccc2)NC(=O)[C@@H]2CCC(=O)NCCCC[C@H](NC(=O)CSC[C@@H](C(N)=O)NC1=O)C(=O)N[C@@H](Cc1ccccc1)C(=O)N[C@@H](CCC(=O)O)C(=O)NCC(=O)N[C@@H](Cc1ccc(O)cc1)C(=O)N[C@@H](CC(=O)O)C(=O)N[C@@H](CC(N)=O)C(=O)N2` [G7-B10] ({CH2CO}-KFEGYDNEFRC-NH2; lactam 1-8; thioether N-11; C-terminus assumed), the Kd at Grb7-SH2 domain [1] came to 1150 ± 408 nM.

For “G7-B1: bicyclic G7 peptide with O-allylserine-based olefin staple between positions 1 and 8 (SFEGYDNSFPC; bicyclic: O-allylserine at positions 1 and 8 (parent Ser) joined by olefin staple (ring-closing metathesis); thioether linkage from N-terminal amine (acetyl/CH2CO) to Cys11 side chain; C-terminal amid)”, the Kd with Grb7-SH2 domain [2] was 1500 nM.

With “KFEGYDNEC (also: bicyclic or more (positions not given here)) [G7-B7]”, the membrane permeability result in data set [3] is reported as “membrane-impermeable”.

B1: G7-18NATE (peptide)
peptide: WFEGYDNTFPC
modifications: cyclic: thioether linkage that tethers the N-terminal amine to the cysteine side chain
notes: non-phosphorylated cyclic peptide of 11 amino acids identified by phage display; also called first-generation monocyclic peptide; source: synthetic peptide, bought: Purar Chemicals (RP-HPLC, >95% purity)
On to B1, for which the Kd with GST-Grb7-SH2 came to 7830 nM.

(Values after PMC9138261, “Enhancing the Bioactivity of Bicyclic Peptides Targeted to Grb7-SH2 by Restoring Cell Permeability” (Biomedicines, 2022).)
